# Source: PubChem BioAssay (NCI)
#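 Exposure lasted 48 hours, with cells grown in 96-well plates and compounds tested at five concentrations. TGI is the concentration that stops growth completely.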 Where a SMILES comes first, the peptide text is derived from it. The star is where a group is joined. Boc = CC(C)(C)OC(=O)*
# Experiments:
# Assay in all cases: DTP human tumour cell line panel, 48 h
# [1] = test system: MOLT-4 leukemia
# [2] = test system: OVCAR-3 ovarian
# [3] = test system: IGROV1 ovarian
# [4] = test system: COLO 205 colon
# [5] = test system: MDA-MB-435
# [6] = test system: HOP-62 NSCLC
# [7] = test system: SR leukemia
# [8] = test system: DU-145 prostate
# [9] = test system: HCT-116 colon
# [10] = test system: RPMI-8226 leukemia
Compound,TGI [1],TGI [2],TGI [3],TGI [4],TGI [5],TGI [6],TGI [7],TGI [8],TGI [9],TGI [10]
O=C(/C=C/c1ccc(O)cc1)c1ccc2c(c1)OCO2,52.3 µM,41 µM,28.9 µM,32 µM,69.5 µM,38.5 µM,33.6 µM,76.7 µM,25.4 µM,
Cc1c(Cl)nc(Nc2nc3ccccc3[nH]2)nc1Cl,> 100 µM,,> 100 µM,> 100 µM,> 100 µM,,> 100 µM,> 100 µM,> 100 µM,> 100 µM
CCCN1C(=O)CC(C)N(Cc2ccccc2Cl)C1=S (configuration not stated),> 100 µM,88.8 µM,> 100 µM,32.9 µM,65.9 µM,> 100 µM,,> 100 µM,79.4 µM,70.4 µM
Cc1ccsc1/C=N/Nc1nc2ccccc2s1,31.3 µM,60.7 µM,23.5 µM,> 100 µM,> 100 µM,22.4 µM,,> 100 µM,23.2 µM,72.2 µM
COC(=O)/C(=C\Nc1cccc(C)n1)S(=O)(=O)c1ccc(C)cc1,70.4 µM,> 100 µM,> 100 µM,49.9 µM,> 100 µM,> 100 µM,> 100 µM,> 100 µM,> 100 µM,> 100 µM
CCCCC(C#N)(OP1(=O)OC(c2ccccc2)C(C)N1C)c1ccccc1 (configuration not stated),35.9 µM,31 µM,32.3 µM,35.4 µM,33.2 µM,38.7 µM,43.9 µM,43.4 µM,30.4 µM,53.2 µM
CC(O)c1cc2c(s1)C(=O)c1sccc1C2=O (configuration not stated),> 100 µM,,0.725 µM,1.09 µM,0.0522 µM,0.406 µM,> 100 µM,0.0347 µM,0.485 µM,
CCOC(=O)c1cc(-c2cc(OC)c(OC)c([N+](=O)[O-])c2)c([N+](=O)[O-])n1C,> 10 µM,> 10 µM,> 10 µM,,4.72 µM,,> 10 µM,,> 10 µM,
C[C@]12CCC(=O)C=C1CC[C@@H]1[C@@H]2[C@@H](O)C[C@@]2(C)[C@H]1CC[C@]2(O)C(=O)COC(=O)COCC(=O)O,> 100 µM,> 100 µM,> 100 µM,> 100 µM,,> 100 µM,,,> 100 µM,> 100 µM
CN(C)c1ccc(C(=C(c2ccc(N(C)C)cc2)c2ccc(N(C)C)cc2)c2ccc(N(C)C)cc2)cc1,41 µM,2.97 µM,34 µM,> 100 µM,,> 100 µM,30.8 µM,,42.1 µM,47.6 µM
COC(=O)C(Cc1c[nH]c2ccccc12)NC(=O)C(Cc1c[nH]c2ccccc12)NC(=O)C(Cc1c[nH]c2ccccc12)NC(=O)C(Cc1c[nH]c2ccccc12)NC(=O)C(Cc1c[nH]c2ccccc12)NC(=O)C(Cc1c[nH]c2ccccc12)NC(=O)OC(C)(C)C (configuration not stated) (Boc-WWWWWW-OMe; configuration not given here),> 100 µM,> 100 µM,> 100 µM,,> 100 µM,> 100 µM,> 100 µM,> 100 µM,> 100 µM,> 100 µM
COc1cc2c(cc1OC)C(C(CO)CO)N(CC(O)CCl)CC2 (configuration not stated),> 100 µM,> 100 µM,> 100 µM,> 100 µM,,> 100 µM,,,,> 100 µM
O=C(O)c1cc2ccccc2c(N=Nc2ccc(S(=O)(=O)Nc3nccs3)cc2)c1O,> 100 µM,> 100 µM,> 100 µM,> 100 µM,> 100 µM,> 100 µM,> 100 µM,> 100 µM,> 100 µM,> 100 µM
O=C(/N=C/c1c(O)c2ccccc2oc1=O)Nc1ccccc1,> 100 µM,> 100 µM,> 100 µM,> 100 µM,,,> 100 µM,,> 100 µM,> 100 µM
C[Si](C)(OCCS(=O)(=O)O)C1(Cc2cccc3ccccc23)S(=O)(=O)OCCOS1(=O)=O,> 100 µM,25.9 µM,36.3 µM,25.3 µM,43 µM,45 µM,,37.4 µM,37.8 µM,57 µM
O=C1CCC2(CC1CC(Sc1ccccc1)Sc1ccccc1)OCCO2 (configuration not stated),66.3 µM,> 100 µM,> 100 µM,66.1 µM,> 100 µM,> 100 µM,87.5 µM,> 100 µM,,> 100 µM
COc1ccc(-c2cc(=O)c3cc4c(cc3[nH]2)OCO4)cc1OC,> 100 µM,> 100 µM,> 100 µM,> 100 µM,,> 100 µM,> 100 µM,,> 100 µM,> 100 µM
COC(=O)/C=C\n1c(C)cc(=O)[nH]c1=O,> 100 µM,> 100 µM,> 100 µM,> 100 µM,> 100 µM,> 100 µM,> 100 µM,,> 100 µM,> 100 µM
Cn1c(=O)c(C(=O)Nc2nc(C34CC5CC(CC(C5)C3)C4)cs2)c(O)c2ccccc21,,> 100 µM,> 100 µM,> 100 µM,> 100 µM,36.2 µM,> 100 µM,> 100 µM,> 100 µM,> 100 µM
N#CC1=C(N)n2c(s/c(=C\c3ccc(Cl)cc3)c2=O)=C(c2nc3ccccc3[nH]2)C1c1ccc(Cl)cc1 (configuration not stated),3.86 µM,3.66 µM,9.71 µM,6.38 µM,,4.68 µM,5.85 µM,,3.61 µM,4.65 µM
CCN(CC)CC1CCCCN1CC(=O)N1c2ccccc2NC(=O)CC1C (configuration not stated),> 100 µM,> 100 µM,> 100 µM,> 100 µM,> 100 µM,> 100 µM,,> 100 µM,> 100 µM,> 100 µM
CCOP(=O)(OCC)/C(C#N)=C/c1cn(C)cn1,,> 100 µM,> 100 µM,> 100 µM,> 100 µM,> 100 µM,> 100 µM,,,
CCC(CON(C)c1ccccc1)(SC)SC,> 100 µM,,> 100 µM,> 100 µM,> 100 µM,> 100 µM,> 100 µM,> 100 µM,> 100 µM,> 100 µM
